Test results taken from US9051351B2, “Hepatocyte growth factor mimics as therapeutic agents” (Washington State University, priority 2011, dated 2015).
Entries after “also recorded” stand apart in the source; their conditions may differ. Where a SMILES comes first, the peptide text is derived from it. [ ]: non-standard residue; d: D form. The star is where a group is joined. Hexanoyl = CCCCCC(=O)*; Ahx = NCCCCCC(=O)O

Tests used:
hippocampal neurons [1] = test: Spine head width in mRFP-β-actin transfected hippocampal neurons; type: cell-based, rat; conditions: 10^−12 M, 5 days
Source text: Neurons were transfected with mRFP-β-actin on day in vitro 6 […] using LipofectAMINE™ 2000 (Invitrogen) according to the manufacturer's protocol. This protocol yielded the desired 3-5% transfection efficiency thus enabling the visualization of individual neurons. Higher efficiencies obscured the dendritic arbor of individual neurons. Expression of fluorescently tagged actin allowed clear visualization of dendritic spines, as dendritic spines are enriched in actin. On DIV7 the cells were treated with vehicle (H2O) or peptides (as described in the text) added to media. […] Slides were dried for at least 20 hours at 4° C. and fluorescent images were obtained with Slidebook 4.2 Digital Microscopy Software driving an Olympus IX81 inverted confocal microscope with a 60× oil immersion lens, NA 1.4 and resolution 0.280 μm Dendritic spine density was measured on primary and secondary dendrites at a distance of at least 150 μm from the soma. Five 50 μm long segments of dendrite from at least 10 neurons per data point were analyzed for each data point reported. […] Dendrite length was determined using the National Institutes of Health's Image J 1.41o program (NIH, Bethesda, Md.) and the neurite tracing program Neuron J (Meijering, Jacob et al. 2004) Spines were manually counted. […]

CA1 hippocampal neurons = test: Spinogenesis in organotypic hippocampal slice cultures; type: cell-based, rat; conditions: 10^−12 M Nle1-AngIV or Dihexa, 10 ng/ml HGF; 2 days
Procedure: (§1) Hippocampi from P4 Sprague Dawley rats were cultured as previously described (Wayman, hnpey et al. 2006). Briefly, 400 μm slices were cultured on (Milipore, Billerica, Mass.) for 3 days after which they were biolistically transfected with tomato fluorescent protein (TFP) using a Helios Gen Gun (BioRad, Hercules, Calif.), according to the manufacturer's protocol, to visualize dendritic arbors. Following a 24 hour recovery period slices were stimulated with vehicle (H2O), 1 pM Nle1-AngIV or Dihexa for 2 days. Slices were fixed and mounted. Hippocampal CA1 neuronal processes were imaged and measured as described above.
as §1, with “Impey” for “hnpey”, “Gene” for “Gen”, “with” for “with vehicle (H2O),”, “Slices were fixed and mounted.” left out
Hippocampi from P4 Sprague Dawley rats were cultured as previously described (Wayman, Impey et al. 2006). […] Hippocampal CA1 neuronal processes were imaged and measured as described above.

hippocampal neurons [2] = test: Growth factor deprivation of dissociated hippocampal neurons; type: cell-based; conditions: starved 72 hrs +/− HGF 5 ng/ml and/or Dihexa
Procedure: FIG. 46. […] Dissociated hippocampal neurons were starved for 72 hrs+/−HGF at sub-threshold concentrations 5 ng/ml and or Dihexa at 2 different concentrations 10^−8M and […]. (**p<0.001,*** p<0.0001; Mean+/−SEM).

6-OHDA lesioned rats = test: 6-OHDA lesioned rat: rope hang, gait analysis, histology; type: in vivo
Procedure: Three groups of rats (8 animals per group) were utilized. The first two groups were prepared with unilateral 6-OHDA lesions and members of the first group was treated with MM-201 in DMSO 100 μl:PBS 8 ml ([…]) Members of Group 2 were treated with sterile DMSO 100 μl:PBS 8 ml equivalent volumes to the weights. Members of Group 3 had only a sham surgery and served as the non-treated controls. These three groups of animals were tested on behavioral tasks the day prior to surgery and on 13 days following surgery. The tasks included rope hang, and gait analysis.
The rope hang test involved the placement of the forepaws on a hemp rope (1.0 cm in dia.) located 1 m above a basket of towels. Hang time was recorded beginning when the experimenter let go of the animal. This test was repeated 3 times/animal/test (5 minutes rest between each test) every other day.
Step gait analyses were conducted in a dark room painted black under red light. The bottoms of each rat's feet were painted with black ink (Parker Quink) and the rat was placed in a Plexiglas straight maze (length×width×height: 116×7.6×10 cm). The maze was slightly elevated at one end such that the animal's tendency was to walk up hill. White paper strips placed on the floor of the maze were used to collect the gait patterns. These ink tracks were analyzed for stride length (distance between the mid point of the fore paw and hind paw comparing left and right strides).

CCCCCC(=O)N[C@@H](Cc1ccc(O)cc1)C(=O)N[C@H](C(=O)NCCCCCC(N)=O)[C@@H](C)CC [Dihexa, N-hexanoic-Tyr-Ile-(6)-aminohexanoic amide] (Hexanoyl-Tyr-Ile-[Ahx]-NH2)
spine head width (hippocampal neurons [1]): 0.80 μm | spines per 50 μm dendrite length in CA1 hippocampal neurons (CA1 hippocampal neurons): 11 spines per 50 μm dendrite length | protection of neurons from growth factor deprivation (hippocampal neurons [2]): act synergistically to protect neurons; also recorded: protects neurons from growth factor deprivation | performance in the rope hang test (6-OHDA lesioned rats; 0.5 mg/kg ip, started 2 weeks after 6-OHDA lesion): completely restores performance in the rope hang test; also recorded: completely restored the performance | motor deficits in the 6-OHDA rat (6-OHDA lesioned rats; 2 mg/kg by oral gavage/48 hrs): reverses motor deficits | gait analysis (6-OHDA lesioned rats; 6-OHDA lesioned rats): confirmed the recovery of normal motor function | overt toxicity (6-OHDA lesioned rats; 96 day studies): no overt toxicity was noted | tyrosine hydroxylase (TH) staining in the substantia nigra (6-OHDA lesioned rats; six weeks of ip Dihexa treatment): dramatic restoration of tyrosine hydroxylase (TH) staining | recovery of SN TH staining (6-OHDA lesioned rats; three months of Dihexa treatment): ~100%
